# Data as given in US20260159536A1, “AKR1C3-ACTIVATED DNA ALKYLATING AGENT, AND MEDICAL APPLICATION THEREOF” (ASCENTAWITS PHARMACEUTICALS, LTD., priority 2021, published 2026).
# What was measured:
# [1] = tested on: human lung cancer NCI-H460 cells; test: In vivo pharmacodynamics, NCI-H460 subcutaneous xenograft model; parameters: species or system BALB/c nude mice; conditions: for Tumor volume: 100 mg/kg i.p.
# [2] = tested on: HuPrime model PA1222 human pancreatic cancer; test: In vivo pharmacodynamics, pancreatic cancer PA1222 PDX model; conditions: for Tumor volume: 120 mg/kg i.p.
# Procedure: The test was divided into groups of test drug Gemcitabine 120 mg/kg group, test drug Compound A 10 mg/kg and 7.5% anhydrous ethanol+7.5% polyoxyethylene (35) castor oil+85% glucose injection DSW (pH 7.4) vehicle control group, a total of 3 groups, with 5 mice per group. […] Test drug Gemcitabine (Gemcitabine) 120 mg/kg group was administered intraperitoneally, once a week for three consecutive weeks.
# [3] = tested on: human lung cancer NCI-H460-Luc2 cells (intracranial); test: In vivo pharmacodynamics, NCI-H460-Luc2 intracranial inoculation CDX model; parameters: species or system BALB/c nude mice; conditions: 20 mg/kg, i.p. QWx3; Day 11
# Procedure: The experiment was divided into groups of test drug Paclitaxel 20 mg/kg group, Compound A 2 mg/kg, 4 mg/kg and 8 mg/kg groups and 10% ethanol+10% polyoxyethylene castor oil+80% glucose injection DSW (pH 7.42) vehicle control group (Vehicle group), with 6 mice per group. […] The positive drug Paclitaxel 20 mg/kg group was administered by intraperitoneal injection and administered once a week for 3 weeks.
# The pharmacodynamic analysis of each group in the human NCI-H460-luc intracranial inoculation model was performed based on the measured bioluminescence values on day 11 after administration, and the results were shown in Table 14.
# [4] = tested on: HuPrime model LU2505 human lung cancer; test: In vivo pharmacodynamics, lung cancer LU2505 PDX model; parameters: species or system BALB/c nude mice; conditions: for Tumor volume: 20 mg/kg i.p.
# [5] = tested on: HuPrime model LU0884 human lung cancer; test: In vivo pharmacodynamics, lung cancer LU0884 PDX model; parameters: species or system BALB/c nude mice; conditions: for Size of tumor volume: Group 2, Paclitaxel 20 mg/kg
# [6] = target: T1, P-gp (Homo sapiens, UniProt P08183); test: P-gp substrate evaluation, MDCKII-MDR1 penetration test with or without Verapamil; assay type: in vitro ADME; conditions: Verapamil 0 μM
# T1 construct: expressed in transfected cells; host or cells: MDCKII-MDR1 cells
# Procedure: The conditions of the incubator were set as 37° C., 5% CO2, and 95% of the relative humidity.
# After that, the MDCKII-MDR1 cells can be used for the penetration test.
# (1) MDCKII-MDR1 transwell culture plate was taken out from the incubator.
# (6) The upper and lower transportations were pooled and then incubated at 37° C. for 2 h.
# After the sample tubes were vortexed for 10 min, and centrifuged at 3220 g for 30 min. […] Each sample was adopted to the three parallel incubation.
# Efflux Ratio was calculated by the following formula: […]
# Recovery was calculated by the following formula: […]
# [7] = 20 mg/kg i.p. every four days x4, Day 28
# [8] = Paclitaxel 20 mg/kg, Q4Dx4, i.p., Day 28
# T1 sequence (P08183 whole entry): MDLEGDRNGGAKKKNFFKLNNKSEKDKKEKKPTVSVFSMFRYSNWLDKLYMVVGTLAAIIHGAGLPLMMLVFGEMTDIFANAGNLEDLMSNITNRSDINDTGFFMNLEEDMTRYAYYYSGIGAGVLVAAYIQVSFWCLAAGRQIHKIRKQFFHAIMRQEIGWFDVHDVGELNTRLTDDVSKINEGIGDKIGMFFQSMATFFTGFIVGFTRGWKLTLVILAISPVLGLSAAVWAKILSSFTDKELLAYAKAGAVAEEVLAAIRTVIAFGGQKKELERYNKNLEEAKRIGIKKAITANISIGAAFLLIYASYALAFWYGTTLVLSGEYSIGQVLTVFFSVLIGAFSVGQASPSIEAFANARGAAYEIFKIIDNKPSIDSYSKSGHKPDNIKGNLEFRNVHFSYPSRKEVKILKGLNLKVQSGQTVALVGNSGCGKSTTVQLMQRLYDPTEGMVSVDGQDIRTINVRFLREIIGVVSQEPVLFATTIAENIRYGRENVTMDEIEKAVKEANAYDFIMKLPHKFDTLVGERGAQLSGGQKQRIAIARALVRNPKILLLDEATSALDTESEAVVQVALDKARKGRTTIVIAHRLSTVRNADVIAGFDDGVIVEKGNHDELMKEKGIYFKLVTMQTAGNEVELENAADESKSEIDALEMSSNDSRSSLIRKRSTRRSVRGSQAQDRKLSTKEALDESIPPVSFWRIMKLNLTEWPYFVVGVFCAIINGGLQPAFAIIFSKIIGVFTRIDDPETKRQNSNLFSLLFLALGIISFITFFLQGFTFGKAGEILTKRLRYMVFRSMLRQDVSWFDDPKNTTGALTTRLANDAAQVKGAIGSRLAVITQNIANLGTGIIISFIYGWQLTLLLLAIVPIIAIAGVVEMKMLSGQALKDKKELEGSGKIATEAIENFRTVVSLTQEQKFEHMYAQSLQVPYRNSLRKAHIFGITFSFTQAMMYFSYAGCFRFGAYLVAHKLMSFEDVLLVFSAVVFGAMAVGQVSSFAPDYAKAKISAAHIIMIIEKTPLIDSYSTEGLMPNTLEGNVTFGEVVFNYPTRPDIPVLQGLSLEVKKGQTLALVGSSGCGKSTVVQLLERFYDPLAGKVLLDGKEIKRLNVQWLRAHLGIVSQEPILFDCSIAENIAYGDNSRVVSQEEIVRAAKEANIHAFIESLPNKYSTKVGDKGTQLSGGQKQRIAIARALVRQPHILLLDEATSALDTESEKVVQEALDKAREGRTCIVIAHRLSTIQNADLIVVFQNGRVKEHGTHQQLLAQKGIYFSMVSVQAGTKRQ
smiles,measurement,setting,value
"N.N.O=C([O-])C1(C(=O)[O-])CCC1.[Pt+2] [Carboplatin, reference compound]",Tumor volume,[1]; Day 7,145.46 mm^3
same,Tumor volume,[1]; Day 10,262.15 mm^3
same,Tumor volume,[1]; Day 14,409.97 mm^3
same,Tumor volume,[1]; Day 17,529.44 mm^3
same,Tumor volume,[1]; Day 21,761.56 mm^3
same,Tumor volume,[1]; Day 24,960.42 mm^3
same,Tumor volume,[1]; Day 28,1073.28 mm^3
same,Tumor volume,[1]; Day 31,1230.93 mm^3
same,Tumor volume,[1]; Day 35,1577.99 mm^3
same,Relative tumor volume (x ± S),"[1]; 100 mg/kg, QWx3, i.p., Day 31",8.58 ± 1.16
same,T/C (%),"[1]; 100 mg/kg, QWx3, i.p., Day 31",64.81%
same,TGI (%),"[1]; 100 mg/kg, QWx3, i.p., Day 31",35.19%
same,Tumor volume (x ± S),"[1]; 100 mg/kg, QWx3, i.p., Day 31, in mm³ (unit assumed)",1230.93 ± 258.17
"Nc1ccn([C@@H]2O[C@H](CO)[C@@H](O)C2(F)F)c(=O)n1 [Gemcitabine, reference compound]",Tumor volume,[2]; Day 0,111.91 mm^3
same,Tumor volume,[2]; Day 3,136.17 mm^3
same,Tumor volume,[2]; Day 7,153.75 mm^3
same,Tumor volume,[2]; Day 10,157.55 mm^3
same,Tumor volume,[2]; Day 14,147.44 mm^3
same,Tumor volume,[2]; Day 17,136.71 mm^3
same,Tumor volume,[2]; Day 21,138.01 mm^3
same,Tumor volume,[2]; Day 24,153.69 mm^3
same,Tumor volume,[2]; Day 28,166.11 mm^3
same,Relative tumor volume (x ± S),"[2]; 120 mg/kg, QWx3, i.p., Day 28",1.49 ± 0.19
same,T/C (%),"[2]; 120 mg/kg, QWx3, i.p., Day 28",42.83%
same,TGI (%),"[2]; 120 mg/kg, QWx3, i.p., Day 28",57.17%
same,Tumor volume (x ± S),"[2]; 120 mg/kg, QWx3, i.p., Day 28",166.11 ± 24.40
"CC(=O)O[C@H]1C(=O)[C@@]2(C)[C@H]([C@H](OC(=O)c3ccccc3)[C@]3(O)C[C@H](OC(=O)[C@H](O)[C@@H](NC(=O)c4ccccc4)c4ccccc4)C(C)=C1C3(C)C)[C@]1(OC(C)=O)CO[C@@H]1C[C@@H]2O [Paclitaxel, reference compound]",Bioluminescence Value (Day 11),[3],4184.52 ± 1679.77 ×10^5 photon/second
same,T/C (%),[3],130.82%
same,TGI (%),[3],−62.45%
same,Relative tumor volume (x ± S),[4]; [7],2.29 ± 1.37
same,T/C (%),[4]; [7],21.40%
same,TGI (%),[4]; [7],78.60%
same,Tumor volume (x ± S),"[4]; 20 mg/kg i.p. every four days x4, Day 28, in mm³ (unit assumed)",250.47 ± 157.81
same,Tumor volume,[4]; Day 0,103.12 mm^3
same,Tumor volume,[4]; Day 4,133.63 mm^3
same,Tumor volume,[4]; Day 7,133.14 mm^3
same,Tumor volume,[4]; Day 11,132.14 mm^3
same,Tumor volume,[4]; Day 14,164.42 mm^3
same,Tumor volume,[4]; Day 18,207.89 mm^3
same,Tumor volume,[4]; Day 21,238.63 mm^3
same,Tumor volume,[4]; Day 25,231.63 mm^3
same,Tumor volume,[4]; Day 28,250.47 mm^3
same,Size of tumor volume,[5]; Day 0,110.11 mm^3
same,Size of tumor volume,[5]; Day 4,157.57 mm^3
same,Size of tumor volume,[5]; Day 7,229.87 mm^3
same,Size of tumor volume,[5]; Day 11,250.46 mm^3
same,Size of tumor volume,[5]; Day 14,292.52 mm^3
same,Size of tumor volume,[5]; Day 18,381.53 mm^3
same,Size of tumor volume,[5]; Day 21,402.62 mm^3
same,Size of tumor volume,[5]; Day 25,492.50 mm^3
same,Size of tumor volume,[5]; Day 28,528.88 mm^3
same,T/C (%),[5]; [8],78.79%
same,TGI (%),[5]; [8],21.21%
same,Relative tumor volume (x ± S),"[5]; Paclitaxel 20 mg/kg, Q4Dx4, i.p., Day 28, mean ± standard error",4.72 ± 1.26
same,Tumor volume (x ± S),"[5]; Paclitaxel 20 mg/kg, Q4Dx4, i.p., Day 28, mean ± standard error, in mm³ (unit assumed)",528.88 ± 147.69
same,tumor inhibitory effect,"[5]; Paclitaxel 20 mg/kg, Compound A 2.5, 5, 10 mg/kg",weak tumor inhibitory effect
COc1cc2nc(N3CCN(C(=O)c4ccco4)CC3)nc(N)c2cc1OC [Prazosin],Efflux Ratio,[6],2.90
